Assay results: patent publication USRE41151E1, “Protected forms of pharmacologically active agents and uses thereof” (Medinox, Inc., priority 2000, dated 2010)

Tests used:
Sprague-Dawley rats = assay: Rat carrageenan-induced hindlimb edema model, paw volume increase; type: in vivo; settings: for paw volume increase, 4 Hours / paw volume increase, 5 Hours: one hour before carrageenan
Protocol: Efficacy of NSAIDs in acute inflammation can be estimated by using intraplanar injection of carrageenan in the rat. Sprague-Dawley rats (200-250 g male) are injected intradermally in the footpad with 50 μl of a 1% carrageenan solution in PBS. Swelling of the injected paw is measured 3 & 4 hours later, using a plethysmometer.

[1] = Plasma pharmacokinetics of naproxen after oral administration in rats; type: in vivo, rat; settings: 2 mg/kg (amount of naproxen in dose)
Protocol: The carotid artery of Sprague-Dawley rat (250-350 g, male) was catheterized at least one day before drug administration and flushed with 30% polyvinyl pyrrolidone (PVP) (400 U/mL of heparin) to maintain patency. […] After centrifugation (13,000 rpm, 10 min, 4° C.), the plasma samples were collected and analyzed in the same day.
Aliquot of plasma sample (100 μL) was mixed with 200 μL of acetonitrile. After vortexing and centrifugation (13,000 rpm, 10 min, 4° C.), 200 μL of supernatant was removed and added to 300 μL of a 58:42 mixture of 50 mM phosphate buffer (pH 5.0) and acetonitrile. Following vortexing and centrifugation, 25 μL of supernatant was removed and analyzed by HPLC with a UV detection system.
The average plasma concentration at each time point was calculated and utilized in a pharmacokinetic analysis. Non-compartmental pharmacokinetic analysis was carried out using WinNolin (Pharsight, Mountainview, Calif.) to calculate the maximum concentration (Cmax), time to maximum concentration (Tmax), area under the curve from zero to the last time point (AUClast), the area under the curve from zero to infinite time (AUCinf), and the terminal phase half life (Beta-t1/2).

For `COc1ccc2cc([C@H](C)C(=O)O)ccc2c1` [Naproxen], the “paw volume increase, 4 Hours” value (Sprague-Dawley rats; naproxen 1 mg/kg oral) was 0.63 ± 0.07, the “paw volume increase, 5 Hours” value (Sprague-Dawley rats; naproxen 1 mg/kg oral) was 0.75 ± 0.08 and the “paw volume increase, 4 Hours” value (Sprague-Dawley rats; naproxen 10 mg/kg oral) was 0.32 ± 0.05. The “paw volume increase, 5 Hours” value (Sprague-Dawley rats; naproxen 10 mg/kg oral) was 0.39 ± 0.07, the reduction in swelling (Sprague-Dawley rats; oral 10 mg/kg one hour before carrageenan, at both time points) was “approximately 50%” and the AUFINF [1] was 55 ± 7 μg * ht/mL.
